In BigSolDB 2.1:

[NH3+]O.[NH3+]O.[O-]n1nnnc1-c1nnnn1[O-]
solubility (mole fraction)
Conditions | 298.15 K | 303.15 K | 308.15 K | 313.15 K | 318.15 K | 323.15 K | 328.15 K | 333.15 K
in formic acid | 0.00145 | 0.00161 | 0.0018 | 0.00201 | 0.00225 | 0.00254 | 0.00287 | 0.00325
in water | 7.96e-05 | 0.000155 | 0.00024 | 0.000317 | 0.000403 | 0.000489 | 0.00058 | 0.000665
